This note sets out measurements from ChEMBL document CHEMBL1909046, “DrugMatrix in vitro pharmacology data”.

Structures are written as SMILES.

The target in one assay is T1, Adenosine receptor A3 (Homo sapiens, UniProt P0DMS8).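 Further: radioligand binding assay with AB-MECA serving as the labeled ligand.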
T1 sequence (P0DMS8 whole entry): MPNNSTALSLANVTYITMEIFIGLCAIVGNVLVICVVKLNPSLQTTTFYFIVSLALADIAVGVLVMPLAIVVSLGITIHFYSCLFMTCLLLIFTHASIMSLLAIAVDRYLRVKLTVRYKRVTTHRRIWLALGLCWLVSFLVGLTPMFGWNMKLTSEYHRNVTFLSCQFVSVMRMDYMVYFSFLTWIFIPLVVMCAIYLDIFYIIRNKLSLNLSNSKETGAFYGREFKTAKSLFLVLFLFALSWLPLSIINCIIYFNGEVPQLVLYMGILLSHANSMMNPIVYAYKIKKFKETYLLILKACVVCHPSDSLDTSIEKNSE
Format: cell membranes, CHO-K1, Membrane.

Assay [1] addresses Vascular endothelial growth factor receptor 1 (Homo sapiens, UniProt P17948). Format: cell-based. Particulars: huvec.
The target in assay [2] is Protein phosphatase 3 catalytic subunit alpha (Homo sapiens, UniProt Q08209). Set-up: species or system Escherichia coli.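 Further: inhibition of calcineurin (PP2B) enzyme activity, measured with DiFMUP as the substrate.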
The next assay concerns the target T2, Endothelin-1 receptor (Homo sapiens, UniProt P25101).
T2 sequence (P25101 whole entry): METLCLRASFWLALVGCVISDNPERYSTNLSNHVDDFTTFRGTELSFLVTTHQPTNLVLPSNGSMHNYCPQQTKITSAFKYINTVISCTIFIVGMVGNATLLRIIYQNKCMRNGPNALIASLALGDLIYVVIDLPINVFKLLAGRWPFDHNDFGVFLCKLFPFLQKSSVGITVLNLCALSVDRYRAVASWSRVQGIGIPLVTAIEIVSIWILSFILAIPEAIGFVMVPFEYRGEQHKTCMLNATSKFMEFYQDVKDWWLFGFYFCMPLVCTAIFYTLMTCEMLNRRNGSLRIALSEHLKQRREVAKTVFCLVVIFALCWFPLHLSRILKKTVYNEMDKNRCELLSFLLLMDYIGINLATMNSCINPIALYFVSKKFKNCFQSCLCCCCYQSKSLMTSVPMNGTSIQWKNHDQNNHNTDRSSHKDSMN
Format: cell membranes, Membrane. Particulars: cho-k1.

The next assay deals with T3, Adenosine receptor A1 (Homo sapiens, UniProt P30542).
T3 sequence (P30542 whole entry): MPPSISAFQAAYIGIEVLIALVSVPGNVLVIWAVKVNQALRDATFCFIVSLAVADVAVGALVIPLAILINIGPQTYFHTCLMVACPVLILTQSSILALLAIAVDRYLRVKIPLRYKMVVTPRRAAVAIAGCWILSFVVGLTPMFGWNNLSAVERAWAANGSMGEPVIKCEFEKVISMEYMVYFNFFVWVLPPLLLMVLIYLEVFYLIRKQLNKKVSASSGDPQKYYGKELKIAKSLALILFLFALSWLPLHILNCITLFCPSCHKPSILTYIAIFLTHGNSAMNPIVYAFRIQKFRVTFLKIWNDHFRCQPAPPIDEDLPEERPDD
The format is cell membranes, CHO, Membrane. The settings on record: cho.

The target in a further assay is Substance-P receptor (Homo sapiens, UniProt P25103). The format is cell membranes, Membrane. Particulars: cho.
Assay [3] deals with T4, Vasoactive intestinal polypeptide receptor 1 (Homo sapiens, UniProt P32241).
T4 sequence (P32241 whole entry): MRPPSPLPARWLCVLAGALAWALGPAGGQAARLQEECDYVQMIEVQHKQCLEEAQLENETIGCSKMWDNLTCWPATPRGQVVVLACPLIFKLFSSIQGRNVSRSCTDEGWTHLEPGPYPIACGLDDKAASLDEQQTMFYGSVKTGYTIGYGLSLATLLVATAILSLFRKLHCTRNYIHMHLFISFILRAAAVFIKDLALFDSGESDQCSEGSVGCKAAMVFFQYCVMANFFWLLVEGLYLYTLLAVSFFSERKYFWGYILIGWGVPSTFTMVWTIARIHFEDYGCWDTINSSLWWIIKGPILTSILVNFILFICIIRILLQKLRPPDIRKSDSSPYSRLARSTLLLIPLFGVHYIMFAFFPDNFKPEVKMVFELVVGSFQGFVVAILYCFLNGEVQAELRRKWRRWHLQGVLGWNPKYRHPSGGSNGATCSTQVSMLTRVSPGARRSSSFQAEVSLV
Format: cell membranes, Membrane. Particulars: ht-29.

The target in another assay is Cannabinoid receptor 1 (Homo sapiens, UniProt P21554). The format is cell membranes, Chem-1, Membrane. Particulars: chem-1.
Further: in other assays of this panel Not Active means under 50% inhibition at 10 µM.

Sequence of Substance-P receptor (P25103 whole entry): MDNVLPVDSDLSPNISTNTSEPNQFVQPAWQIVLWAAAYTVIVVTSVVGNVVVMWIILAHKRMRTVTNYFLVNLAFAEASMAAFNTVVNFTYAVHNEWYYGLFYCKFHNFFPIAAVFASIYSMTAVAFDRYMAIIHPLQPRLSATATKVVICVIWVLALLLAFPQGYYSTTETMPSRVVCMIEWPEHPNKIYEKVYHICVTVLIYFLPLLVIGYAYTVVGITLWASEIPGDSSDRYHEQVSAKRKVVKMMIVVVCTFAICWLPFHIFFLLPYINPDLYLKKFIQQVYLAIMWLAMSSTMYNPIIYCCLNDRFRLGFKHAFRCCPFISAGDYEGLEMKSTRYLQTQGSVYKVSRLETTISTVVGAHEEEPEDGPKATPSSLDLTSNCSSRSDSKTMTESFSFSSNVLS
Sequence of Vascular endothelial growth factor receptor 1 (P17948 whole entry): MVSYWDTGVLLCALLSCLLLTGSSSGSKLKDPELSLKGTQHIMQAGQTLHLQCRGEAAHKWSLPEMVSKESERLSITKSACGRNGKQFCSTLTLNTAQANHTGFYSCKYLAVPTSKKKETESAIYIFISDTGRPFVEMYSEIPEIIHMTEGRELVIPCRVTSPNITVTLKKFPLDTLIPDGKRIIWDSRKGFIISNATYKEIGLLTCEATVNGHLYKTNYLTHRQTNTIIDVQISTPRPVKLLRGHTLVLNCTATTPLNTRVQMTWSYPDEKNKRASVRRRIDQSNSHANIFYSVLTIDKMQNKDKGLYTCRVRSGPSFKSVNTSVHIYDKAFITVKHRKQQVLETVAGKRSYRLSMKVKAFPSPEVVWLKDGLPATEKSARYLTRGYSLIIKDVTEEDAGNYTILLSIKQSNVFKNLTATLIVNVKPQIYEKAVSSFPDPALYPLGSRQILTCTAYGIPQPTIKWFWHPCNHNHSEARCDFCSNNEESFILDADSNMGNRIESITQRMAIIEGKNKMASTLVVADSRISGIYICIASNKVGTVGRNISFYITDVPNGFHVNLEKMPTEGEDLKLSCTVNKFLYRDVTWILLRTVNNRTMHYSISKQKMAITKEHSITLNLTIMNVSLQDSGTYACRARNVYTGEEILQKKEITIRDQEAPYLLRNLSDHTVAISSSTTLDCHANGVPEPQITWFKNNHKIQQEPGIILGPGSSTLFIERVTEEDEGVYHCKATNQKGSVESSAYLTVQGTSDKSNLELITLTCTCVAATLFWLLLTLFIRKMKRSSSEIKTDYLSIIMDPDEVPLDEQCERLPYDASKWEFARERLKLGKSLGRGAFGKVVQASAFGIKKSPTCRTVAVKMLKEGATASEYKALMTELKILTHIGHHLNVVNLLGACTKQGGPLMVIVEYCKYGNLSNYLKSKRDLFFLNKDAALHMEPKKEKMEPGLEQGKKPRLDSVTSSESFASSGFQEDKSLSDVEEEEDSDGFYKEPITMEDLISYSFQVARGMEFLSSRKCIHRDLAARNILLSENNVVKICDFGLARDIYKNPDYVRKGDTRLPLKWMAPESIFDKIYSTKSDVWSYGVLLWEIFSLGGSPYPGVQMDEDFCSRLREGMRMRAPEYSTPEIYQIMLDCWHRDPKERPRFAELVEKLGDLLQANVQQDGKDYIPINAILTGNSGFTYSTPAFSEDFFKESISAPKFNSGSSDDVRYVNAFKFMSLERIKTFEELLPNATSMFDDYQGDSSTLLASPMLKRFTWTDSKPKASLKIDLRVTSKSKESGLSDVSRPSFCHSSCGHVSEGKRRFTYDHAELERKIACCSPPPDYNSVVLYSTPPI
Sequence of Cannabinoid receptor 1 (P21554 whole entry): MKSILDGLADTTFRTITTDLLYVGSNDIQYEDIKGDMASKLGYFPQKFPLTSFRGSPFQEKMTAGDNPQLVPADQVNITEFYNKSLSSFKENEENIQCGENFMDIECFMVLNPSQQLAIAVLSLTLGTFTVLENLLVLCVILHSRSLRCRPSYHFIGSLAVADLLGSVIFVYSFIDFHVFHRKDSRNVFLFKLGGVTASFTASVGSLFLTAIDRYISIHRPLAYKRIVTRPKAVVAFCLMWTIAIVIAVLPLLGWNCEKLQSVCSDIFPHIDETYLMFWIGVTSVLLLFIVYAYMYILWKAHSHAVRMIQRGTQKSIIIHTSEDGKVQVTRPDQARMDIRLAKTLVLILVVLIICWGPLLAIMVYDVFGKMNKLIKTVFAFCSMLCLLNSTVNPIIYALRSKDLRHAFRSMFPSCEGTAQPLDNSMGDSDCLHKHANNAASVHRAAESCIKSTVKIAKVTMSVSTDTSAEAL

One may read the IC50 as the midpoint of a concentration-inhibition curve. For `C#C[C@]1(O)CC[C@H]2[C@@H]3[C@H](C)CC4=C(CCC(=O)C4)[C@H]3CC[C@@]21C` [TIBOLONE], the half-inhibitory concentration (IC50) result (against Adenosine receptor A3 (cho-k1); in assay [1]; in assay [2]; against Endothelin-1 receptor; against Adenosine receptor A1; against Substance-P receptor) was “Not Active” each time. Further, the IC50 entry (in assay [3]; against Cannabinoid receptor 1) was “Not Active” throughout.

As for `C[C@]12CCC(=O)C[C@@H]1CC[C@@H]1[C@@H]2CC[C@]2(C)[C@@H](O)CC[C@@H]12` [STANOLONE], the IC50 entry (against Adenosine receptor A3 (cho-k1); in assay [1]; in assay [2]; against Endothelin-1 receptor; at Adenosine receptor A1; against Substance-P receptor) was “Not Active” throughout. Besides, the concentration for half-maximal inhibition (IC50) entry (in assay [3]; at Cannabinoid receptor 1) was “Not Active” in each case.

In the case of `CC(C)(C)NC[C@H](O)COc1cccc2c1CCCC2=O` [LEVOBUNOLOL], the IC50 entry (against Adenosine receptor A3 (cho-k1); in assay [1]; in assay [2]; against Endothelin-1 receptor; on Adenosine receptor A1; against Substance-P receptor) was “Not Active” each time. Besides, the IC50 entry (in assay [3]; against Cannabinoid receptor 1) was “Not Active” in each case.

Consider `CCN1CCCC1CNC(=O)c1cc(S(N)(=O)=O)ccc1OC` (stereo not given) [SULPIRIDE], for which the IC50 entry (on Adenosine receptor A3 (cho-k1); in assay [1]; in assay [2]; against Endothelin-1 receptor; at Adenosine receptor A1; against Substance-P receptor) was “Not Active” in each case. For the same compound, the IC50 entry (in assay [3]; at Cannabinoid receptor 1) was “Not Active” each time.

The Ki is the dissociation constant of the complex between target and ligand, obtained from inhibition or displacement. As to `CCN(CC)C(=S)SSC(=S)N(CC)CC`, the IC50 was 356 nM on Adenosine receptor A3 (read-out: IC50); “Not Active” in assay [1]; “Not Active” in assay [2]; “Not Active” on Endothelin-1 receptor; “Not Active” against Adenosine receptor A1; “Not Active” on Substance-P receptor. Moreover, the concentration for half-maximal inhibition (IC50) result (in assay [3]; against Cannabinoid receptor 1) was “Not Active” in each case. For the same compound, the Ki on Adenosine receptor A3 (read-out: Ki) turned out to be 201 nM.

On to `OC[C@@H](O)[C@@H](O)[C@H](O)[C@H](O)CO` [MANNITOL], for which the half-maximal inhibitory concentration (IC50) result (against Adenosine receptor A3 (cho-k1); in assay [1]; in assay [2]; on Endothelin-1 receptor; at Adenosine receptor A1; against Substance-P receptor) was “Not Active” each time. For the same compound, the IC50 result (in assay [3]; at Cannabinoid receptor 1) was “Not Active” each time.

As to `C[N+]1(C)[C@@H]2C[C@@H](OC(=O)[C@H](CO)c3ccccc3)C[C@H]1[C@@H]1O[C@@H]12.[Br-]` [METHSCOPOLAMINE BROMIDE], the IC50 entry (at Adenosine receptor A3 (cho-k1); in assay [1]; in assay [2]; against Endothelin-1 receptor; against Adenosine receptor A1; against Substance-P receptor) was “Not Active” throughout. Besides, the 50% inhibitory concentration (IC50) entry (in assay [3]; at Cannabinoid receptor 1) was “Not Active” each time.

In the case of `CCN(CC)CCNC(=O)c1cc(Cl)c(N)cc1OC` [METOCLOPRAMIDE], the IC50 result (against Adenosine receptor A3 (cho-k1); in assay [1]; in assay [2]; at Endothelin-1 receptor; against Adenosine receptor A1; at Substance-P receptor) was “Not Active” in each case. In addition, the IC50 entry (in assay [3]; at Cannabinoid receptor 1) was “Not Active” throughout.

In the case of `CC(=O)O[C@]1(C(C)=O)CC[C@H]2[C@@H]3C[C@H](C)C4=CC(=O)CC[C@]4(C)[C@H]3CC[C@@]21C` [MEDROXYPROGESTERONE ACETATE], the IC50 result (at Adenosine receptor A3 (cho-k1); in assay [1]; in assay [2]; on Endothelin-1 receptor; on Adenosine receptor A1; against Substance-P receptor) was “Not Active” each time. Further, the IC50 entry (in assay [3]; on Cannabinoid receptor 1) was “Not Active” throughout.

Take `Cc1ccnc(NS(=O)(=O)c2ccc(N)cc2)n1` [SULFAMERAZINE]: the IC50 result (on Adenosine receptor A3 (cho-k1); in assay [1]; in assay [2]; on Endothelin-1 receptor; against Adenosine receptor A1; on Substance-P receptor) was “Not Active” in each case. Further, the IC50 entry (in assay [3]; on Cannabinoid receptor 1) was “Not Active” each time.

In the case of `O=C(c1ccccc1)c1ccc2n1CCC2C(=O)O` (stereo not given) [KETOROLAC], the 50% inhibitory concentration (IC50) entry (against Adenosine receptor A3 (cho-k1); in assay [1]; in assay [2]; on Endothelin-1 receptor; at Adenosine receptor A1; against Substance-P receptor) was “Not Active” throughout. Besides, the concentration for half-maximal inhibition (IC50) result (in assay [3]; against Cannabinoid receptor 1) was “Not Active” throughout.

As for `Cc1nnc(NS(=O)(=O)c2ccc(N)cc2)s1` [SULFAMETHIZOLE], the half-inhibitory concentration (IC50) entry (at Adenosine receptor A3 (cho-k1); in assay [1]; in assay [2]; against Endothelin-1 receptor; against Adenosine receptor A1; at Substance-P receptor) was “Not Active” in each case. Besides, the IC50 entry (in assay [3]; at Cannabinoid receptor 1) was “Not Active” in each case.

On to `CCC(C)(C)C(=O)O[C@H]1C[C@@H](C)C=C2C=C[C@H](C)[C@H](CC[C@@H]3C[C@@H](O)CC(=O)O3)[C@H]21` [SIMVASTATIN], for which the IC50 entry (against Adenosine receptor A3 (cho-k1); in assay [1]; in assay [2]; on Endothelin-1 receptor; on Adenosine receptor A1; against Substance-P receptor) was “Not Active” each time. Besides, the half-maximal inhibitory concentration (IC50) result (in assay [3]; against Cannabinoid receptor 1) was “Not Active” in each case.

Turning to `Oc1ccc(/C=C/c2cc(O)cc(O)c2)cc1` [RESVERATROL], the IC50 entry (against Adenosine receptor A3 (cho-k1); in assay [1]; in assay [2]; against Endothelin-1 receptor; on Adenosine receptor A1; against Substance-P receptor) was “Not Active” in each case. Moreover, the IC50 entry (in assay [3]; on Cannabinoid receptor 1) was “Not Active” each time.

As for `Cc1cnc(NC(=O)C2=C(O)c3ccccc3S(=O)(=O)N2C)s1` [MELOXICAM], the IC50 entry (against Adenosine receptor A3 (cho-k1); in assay [1]; in assay [2]; at Endothelin-1 receptor; on Adenosine receptor A1; at Substance-P receptor) was “Not Active” each time. Besides, the IC50 result (in assay [3]; at Cannabinoid receptor 1) was “Not Active” throughout.

Consider `CC[C@H](C)[C@@H](CO[C@@H](Cc1ccccc1)C(=O)N[C@@H](CCS(C)(=O)=O)C(=O)OC(C)C)NC[C@@H](N)CS`, for which the IC50 entry (against Adenosine receptor A3 (cho-k1); in assay [1]; in assay [2]; on Endothelin-1 receptor; against Adenosine receptor A1; at Substance-P receptor) was “Not Active” throughout. Moreover, the IC50 result (in assay [3]; at Cannabinoid receptor 1) was “Not Active” in each case.

For `O=C1CC[C@@]2(O)[C@H]3Cc4ccc(O)c5c4[C@@]2(CCN3CC2CC2)[C@H]1O5` [NALTREXONE], the half-inhibitory concentration (IC50) result (at Adenosine receptor A3 (cho-k1); in assay [1]; in assay [2]; on Endothelin-1 receptor; at Adenosine receptor A1; on Substance-P receptor) was “Not Active” in each case. Also, the IC50 entry (in assay [3]; against Cannabinoid receptor 1) was “Not Active” throughout.

Take `CNCCCC12CCC(c3ccccc31)c1ccccc12` [MAPROTILINE]: the IC50 result (on Adenosine receptor A3 (cho-k1); in assay [1]; in assay [2]; at Endothelin-1 receptor; against Adenosine receptor A1; against Substance-P receptor) was “Not Active” in each case. For the same compound, the IC50 entry (in assay [3]; at Cannabinoid receptor 1) was “Not Active” throughout.
